{"source": "paper PMC11672292", "about": "“Discovery of Balasubramide Derivative with Tissue‐Specific Anti‐Inflammatory Activity Against Acute Lung Injury by Targeting VDAC1” (Advanced Science, 2024)", "key": {"[1]": {"system": "LPS-stimulated RAW264.7 cells", "assay": "LPS-induced TNF-α release in RAW264.7 macrophages (ELISA)", "type": "cell-based, mouse", "conditions": "for IC50: read-out: IC50, inhibition of LPS-induced TNF-α release", "method": "The anti‐inflammatory effects of all (+)‐balasubramide derivatives were evaluated in Lipopolysaccharide (LPS, L2630, Sigma–Aldrich, USA)‐induced macrophage inflammation model. RAW264.7 cells were pretreated with various compounds or (+)3C‐20 at different concentrations for 3 h, and then stimulated with LPS (100 ng mL^−1) for 2 h for the detection of pro‐inflammatory factors expressions. Similarly, following 3 h co‐incubation with (+)3C‐20, mouse BMDMs were stimulated with LPS (100 ng mL^−1) for 3 h. TNF‐α protein in the culture medium supernatant was measured by a commercial ELISA kit (#1 217 202, DAKEWE, China) following the manufacture's protocols."}, "mice": {"system": "mice", "assay": "Acute toxicity (LD50, sequential method), single intravenous injection", "conditions": "for Mortality: i.v.", "text": "To test the safety of (+)3C‐20 in mice, as previously reported,^[ [31] ^] we estimated the acute toxicity of (+)3C‐20 in mice using a sequential method."}, "RAW264.7 cells": {"system": "RAW264.7 cells", "assay": "CCK-8 cell viability assay", "type": "cell-based, mouse", "conditions": "10 μM, 24 h", "method": "Cell viability was determined by CCK‐8 assay. RAW264.7 cells or mouse BMDMs cultured in a 96‐well plate were pretreated with various compounds at 10 µM or different concentrations of (+)3C‐20 for 24 h when cells reached 70% confluence and then were treated with DMEM containing 5 µL CCK‐8 reagent (A311, Vazyme, China) in a humidified atmosphere of 5% CO2 and 95% air for 1 h at 37 °C. The UV absorption values of the medium with CCK‐8 were measured at 450 nm in a ThermoFisher plate‐reader (VL0L0TD2, Waltham, USA)."}}}
{"smiles": "O=C(O)CNC(=O)C1(Nc2ccccc2)CCN(Cc2cccc3ccccc23)CC1", "note": "[VBIT-12, reference compound]", "values": [{"measurement": "IC50", "setting": "[1]; RAW264.7 cells", "value": 83.1, "unit": "µM"}]}
{"smiles": "O=C(CC(CO)N1CCN(c2ccc(OC(F)(F)F)cc2)CC1)Nc1ccc(Cl)cc1", "note": "(stereo not shown) [VBIT-4]", "values": [{"measurement": "IC50", "setting": "[1]; RAW264.7 cells", "value": 19.8, "unit": "µM"}, {"measurement": "Mortality", "setting": "mice; dosage 60.00 mg/kg", "value": 0}, {"measurement": "Mortality", "setting": "mice; dosage 71.14 mg/kg", "value": 14.286}, {"measurement": "Mortality", "setting": "mice; dosage 84.34 mg/kg", "value": 83.333}, {"measurement": "Mortality", "setting": "mice; dosage 100.00 mg/kg", "value": 100}, {"measurement": "LD50", "setting": "mice; single intravenous injection", "value": 75.828, "unit": "mg/kg"}]}
{"smiles": "CN1CCc2c([nH]c3ccccc23)C(c2ccccc2)C(O)C1=O", "note": "(single isomer, unassigned; (+)) [(+)3J]", "values": [{"measurement": "effect on the release of TNF-α", "setting": "[1]; LPS-induced RAW 264.7 macrophage inflammation model", "value": "a certain inhibitory effect"}, {"measurement": "inhibition at 10 µM", "setting": "[1]; Mus musculus, 10 μM + LPS (100 ng/mL), RAW264.7 cells, n = 3, read-out: Inhibition rate (%) of TNF-α release", "value": "19.1 ± 1.83", "unit": "%"}, {"measurement": "cell viability", "setting": "RAW264.7 cells", "value": "95.09 ± 1.19"}]}
